Source: US9458102B2 (priority 2011, dated 2016)

Experiments:
rd1 mouse = rd1 mouse model of retinal degeneration, subretinal injection; assay type: in vivo; settings: subretinal injection at P12, estimated final concentration 5 μM, harvested at P17
Protocol: FIG. 9 is a set of four images of retinal sections from an untreated rd1 mouse euthanized at P17 (upper panels) and an rd1 mouse receiving a subretinal injection of 30 μM compound 8 (final concentration ^˜5 μM) at P12 and euthanized at P17 (lower panels). The photographs show standard histological analysis of retinal sections stained with cresol purple. The right panels are expansions of similar regions in each retina near the optic nerve. The white brackets mark the outer nuclear layer containing photoreceptor nuclei.
(§1) The rd1 mouse is a newer designation for the classic rd mouse, which harbors a nonsense mutation in the PDE6B gene. […] The rd phenotype has been studied for many years, and allows for more rapid assessment of protection strategies. However, the onset of rod photoreceptor death overlaps with the later stages of development and synaptogenesis, making it difficult to distinguish between the primary effects of rod degeneration and the consequences of abnormal neural development. The rd10 phenotype is more reminiscent of typical human RP.
FIG. 9 is a comparison of two rd1 eyes, one untreated (upper panel) and one receiving a subretinal injection of compound 8 to an estimated final concentration of 5 μM at P12. […] Indeed, the entire retina was healthier in appearance in the treated eye.

rd10 mouse = rd10 mouse model of retinal degeneration, intravitreal injection; assay type: in vivo; settings: intravitreal injection at P15, final concentration ~0.5 mM, euthanized at P25; PBS in the other eye
Protocol: FIG. 8 is a set of two images of retinal sections from the left eye (left panel) and right eye (right panel) of an rd10 mouse, intravitreally injected with PBS and 5 mM compound 9 (final concentration ^˜0.5 mM), respectively, at P15 and euthanized at P25. Retinas were sectioned at 20 microns, and stained with DAPI. Images are confocal stacks taken very close to the optic nerve. The outer nuclear layers corresponding to photoreceptor cells are shown with white brackets.
as §1
(§2) In separate experiments on adult wild-type mice, the ERG a and b waves were blocked during a similar 10-day treatment, as expected for a concentration in excess of that required to completely block CNG channels. In the rd10 mouse some degeneration was probably underway before the treatment began.

adult wild-type mice = assay: ERG in adult wild-type mice during 10-day treatment; assay type: in vivo, mouse; settings: similar 10-day treatment
Description: as §2

With CCCCNc1ccc(C(=S)NCCN(C)C)cc1 [Compound 8, 4-(Butylamino)-N-(2-(dimethylamino)ethyl)benzothioamide] the “rescuing effect on retina” value (rd1 mouse) was “very noticeable rescuing effect” and the “outer nuclear layer thickness” value (rd1 mouse; untreated eye one cell thick) was “about three cells thick”.

For CCCCCCCCNc1ccc(C(=S)NCCN(C)C)cc1 [Compound 9, 4-(Octylamino)-N-(2-(dimethylamino)ethyl)benzothioamide], the “neuroprotection of the photoreceptor layer” value (rd10 mouse) was “striking neuroprotection of the photoreceptor layer” and the “ERG a and b waves” value (adult wild-type mice) was “blocked”.
